# In ChEMBL document CHEMBL1145882, “High affinity, bioavailable 3-amino-1,4-benzodiazepine-based gamma-secretase inhibitors” (Bioorg Med Chem Lett, 2003):
# Legend:
# Gamma-secretase = assay: In vitro inhibition of gamma secretase.; assay type: protein-complex assay, Homo sapiens
# [1] = Cmax value at 5 mg/kg po in rat; assay type: ADME, organism-based; set-up: dose 5 mg/kg, route oral; conditions: in vivo
# [2] = Area under curve at 4 hr in rat; assay type: ADME, organism-based; set-up: time < 4 hr; conditions: in vivo
# [3] = Cmax value at 1 mg/kg po in rat; assay type: ADME, organism-based; set-up: dose 1 mg/kg, route oral; conditions: in vivo
# [4] = Bioavailability in rat; assay type: ADME, organism-based; conditions: in vivo
# [5] = Half life period was determined; assay type: ADME; conditions: rat
# [6] = Cmax value at 5 mg/kg po was determined in rat; assay type: ADME, organism-based; set-up: dose 5 mg/kg, route oral; conditions: in vivo
Structure (SMILES),IC50 (Gamma-secretase),also measured
C[C@@H](Cc1ccc(F)c(F)c1)C(=O)NC1N=C(c2ccc(C(N)=O)cc2)c2ccccc2N(C)C1=O (stereo partly specified),0.49 nM,–
C[C@@H](Cc1ccc(F)c(F)c1)C(=O)N[C@H]1N=C(c2ccc3c(c2)CCCC3=O)c2ccccc2N(C)C1=O,2.2 nM,–
C[C@@H](Cc1ccc(F)c(F)c1)C(=O)N[C@H]1N=C(c2ccc3c(c2)CCN(C)C3=O)c2ccccc2N(C)C1=O,1880 nM,–
C[C@@H](Cc1ccc(F)c(F)c1)C(=O)N[C@H]1N=C(c2ccc3c(c2)OC(F)(F)O3)c2ccccc2N(C)C1=O,28 nM,–
C[C@@H](Cc1ccc(F)c(F)c1)C(=O)N[C@H]1N=C(c2ccc3c(=O)ccoc3c2)c2ccccc2N(C)C1=O,1.2 nM,–
C[C@@H](Cc1ccc(F)c(F)c1)C(=O)N[C@H]1N=C(c2ccc3c(c2)OCO3)c2ccccc2N(C)C1=O,13.2 nM,Cmax [1]: 40 nM; AUC at 4 h [2]: 0.09 µM·h
C[C@@H](Cc1ccc(F)c(F)c1)C(=O)N[C@H]1N=C(c2ccc3c(c2)CCNC3=O)c2ccccc2N(C)C1=O,0.3 nM,AUC at 4 h [2]: < 0.004 µM·h; Cmax [3]: 2 nM
C[C@@H](Cc1ccc(F)c(F)c1)C(=O)N[C@H]1N=C(c2ccc3c(=O)[nH]ccc3c2)c2ccccc2N(C)C1=O,0.2 nM,–
C[C@@H](Cc1ccc(F)c(F)c1)C(=O)N[C@H]1N=C(c2ccc3c(c2)OCO3)c2ccccc2N(CC(=O)N(C)C)C1=O,5.5 nM,–
C[C@@H](Cc1ccc(F)c(F)c1)C(=O)N[C@H]1N=C(c2ccc3c(c2)OCO3)c2ccccc2N(CC(N)=O)C1=O,13.2 nM,bioavailability [4]: 22%; AUC at 4 h [2]: 2.9 µM·h; half-life [5]: 1.4 h; Cmax [6]: 900 nM
CC(=O)CCN1C(=O)[C@@H](NC(=O)[C@@H](C)Cc2ccc(F)c(F)c2)N=C(c2ccc3c(c2)OCO3)c2ccccc21,3.7 nM,–
COC(=O)CN1C(=O)[C@@H](NC(=O)[C@@H](C)Cc2ccc(F)c(F)c2)N=C(c2ccc3c(c2)OCO3)c2ccccc21,12.7 nM,–
C[C@@H](Cc1ccc(F)c(F)c1)C(=O)N[C@H]1N=C(c2ccc3c(c2)OCO3)c2ccccc2NC1=O,1.8 nM,–
C[C@@H](Cc1ccc(F)c(F)c1)C(=O)N[C@H]1N=C(c2ccc3c(c2)OCO3)c2ccccc2N(CCO)C1=O,0.9 nM,–
C[C@@H](Cc1ccc(F)c(F)c1)C(=O)N[C@H]1N=C(c2ccc3c(c2)CCC(=O)N3)c2ccccc2N(C)C1=O,101 nM,–
CNC(=O)CN1C(=O)[C@@H](NC(=O)[C@@H](C)Cc2ccc(F)c(F)c2)N=C(c2ccc3c(c2)OCO3)c2ccccc21,1.8 nM,–
C[C@@H](Cc1ccc(F)c(F)c1)C(=O)N[C@H]1N=C(c2ccc3c(c2)OCCO3)c2ccccc2N(C)C1=O,4.7 nM,–
C[C@@H](Cc1ccc(F)c(F)c1)C(=O)N[C@H]1N=C(c2ccc3c(c2)CCC3=O)c2ccccc2N(C)C1=O,3.6 nM,–
